Data on two compounds can be found in patent publication US11813276B2, “Compositions and methods for the treatment of AUD” (University of Southern California, priority 2020, dated 2023).

The subject of data set [1] is mice. Briefly: Earlier ethanol drinking studies with avermectins given alone. Conditions: for time from administration to time of significant reduction of ethanol intake: avermectin alone. Type of data set: in vivo. The text has this: The altered function or expression of central nervous system (CNS) genes has long been considered a significant factor in contributing to the behavioral phenotype of alcoholism. By profiling gene expression in rodent strains undergoing multiple drinking paradigms, researchers have begun to identify potential candidate genes and pathways that may impart novel mechanistic information that drives the neurobiology of alcoholism.

Data set [2] concerns mice. Conditions: cited from earlier work.

On to `CC[C@H](C)[C@H]1O[C@]2(CC[C@@H]1C)C[C@@H]1C[C@@H](C/C=C(\C)[C@@H](O[C@H]3C[C@H](OC)[C@@H](O[C@H]4C[C@H](OC)[C@@H](O)[C@H](C)O4)[C@H](C)O3)[C@@H](C)/C=C/C=C3\CO[C@@H]4[C@H](O)C(C)=C[C@@H](C(=O)O1)[C@]34O)O2` [IVM, ivermectin], for which the “time from administration to time of significant reduction of ethanol intake” value in the data set on mice [1] was found to be 8 h. In addition, in the data set with mice [1] (chronic administration), the “effect of chronic administration on the reduction of ethanol intake (tolerance)” value is “did not significantly alter the reduction of ethanol intake”. In addition, the “toxicity or addictive liabilities” value with mice [1] (chronic administration, ethanol drinking studies) is on record as “nor was any measured or observed obvious increase in toxicity or addictive liabilities”. Also, the voluntary ethanol intake result in the data set on mice [2] (IVM alone, doses between 2.5 mg/kg and 10 mg/kg, mice models (Yardlet et al., 2012)) was “significant reduction in the voluntary ethanol intake”. Also, in the data set with mice [2] (male and female mice, avermectin alone), the ethanol intake entry was “significantly reduced ethanol intake”.
Regarding `CO/N=C1\C[C@]2(C[C@@H]3C[C@@H](C/C=C(\C)C[C@@H](C)/C=C/C=C4\CO[C@@H]5[C@H](O)C(C)=C[C@@H](C(=O)O3)[C@]45O)O2)O[C@H](/C(C)=C/C(C)C)[C@H]1C` [MOX, moxidectin], the “time from administration to time of significant reduction of ethanol intake” value in the data set on mice [1] was determined as 4 h. The “toxicity or addictive liabilities” value with mice [1] (mouse, in vivo) is on record as “nor was any measured or observed obvious increase in toxicity or addictive liabilities”.
